Data from patent publication US20200308171A1, “BIFUNCTIONAL INHIBITORS WITH EGFR HAVING A E3 UBIQUITIN LIGASE MOIETY” (Hoffmann-La Roche Inc., priority 2017, published 2020).

biological target: T1, EGFR T790M/L858R/C797S (Homo sapiens, UniProt P00533, C797S/L858R/T790M); assay: EGFR Degradation Assay (Cellular), FRET quantification of total EGFR; type: cell-based; conditions: BaF3 EGFR mutant cell line (EGFR T790M/L858R/C797S); 4-hour incubation; total EGFR FRET kit; top concentration 1 μM, 11 points; read-out: IC50 [nM] mutant EGFR degradation
T1 construct: expressed in transfected cells; host or cells: BaF3 (murine pro-B) cells stably transduced with pCDH lentiviral vector, PGK promoter
Experimental: EGFR Degradation Assay (Cellular)
The BaF3 parental line was purchased from DSMZ and grown in RPMI media supplemented with 10% FBS and 10 ng/mL interleukin 3 (IL-3) (Thermo Fisher Scientific). EGFR mutants ([…]) were cloned into the pCDH lentiviral vector (SystemBio) under the control of a PGK promoter and confirmed by DNA sequencing. The resulting gene expression vector for each mutant was mixed with packaging vectors and cotransfected into 2×10E6 HEK293T cells (ATCC) in 10 mL of DMEM media to generate lentiviral particles according to the manufacturers protocol (Origene).
Three days post-transfection, the viral supernatant was harvested and filtered. In one well of a 12-well plate, 0.5 mL of viral supernatant was added to 2E6 Ba/F3 cells contained in 1.5 mL of RPMI media including 10% FBS, 10 ng/mL IL-3, and 5 μg/mL polybrene (Invitrogen). The plate was centrifuged at 2,000 rpm for 1 hour at room temperature and infected cells were kept in a tissue culture incubator overnight at 37° C. The cells were washed once in fresh BaF3 media and reseeded at 0.5E6 cells/well of a 12-well plate in media supplemented with 0.5 μg/mL puromycin. The cells were maintained in this media for 3 weeks. IL-3-independent, EGFR mutant transformed cells were routinely maintained in RPMI medium supplemented with 10% FBS.
RPMI 1640 no-phenol red medium and fetal bovine serum (FBS) were purchased from Gibco (Grand Island, N.Y., USA). EGFR total kit and EGFR phospho-Y1068 kit were purchased from Cisbio (Bedford, Mass., USA). BaF3 EGFR mutant cell lines (EGFR T790M/L858R/C797S) cell line was generated in house, according to the protocol reported above. Cell culture flasks and 384-well microplates were acquired from VWR (Radnor, Pa., USA).
EGFR degradation was determined based on quantification of FRET signal using EGFR total kit. The FRET signal detected correlates with total EGFR protein level in cells. Briefly, test compounds were added to the 384-well plate from a top concentration of 1 μM with 11 points, half log titration in quadruplicates. Then, BaF3 EGFR mutant cell lines (EGFR T790M/L858R/C797S) were added into 384-well plates at a cell density of 10000 cells per well. The plates were kept at 37° C. with 5% CO2 for 4 hours. After 4-hour incubation, 4× lysis buffer was added to the cells, and then microplate was agitated on plate shaker at 500 rpm for 30 minutes at room temperature. Next, total EGFR antibody solution was added to the cells and the cells were incubated for another 4 hours at room temperature. Finally, FRET signal was acquired on EnVision™ Multilabel Reader (PerkinElmer, Santa Clara, Calif., USA). The cells treated in the absence of the test compound were the negative control and lysis buffer with antibody solution only were the positive control.

T1 sequence (P00533 25-1210 T790M/C797S/L858R): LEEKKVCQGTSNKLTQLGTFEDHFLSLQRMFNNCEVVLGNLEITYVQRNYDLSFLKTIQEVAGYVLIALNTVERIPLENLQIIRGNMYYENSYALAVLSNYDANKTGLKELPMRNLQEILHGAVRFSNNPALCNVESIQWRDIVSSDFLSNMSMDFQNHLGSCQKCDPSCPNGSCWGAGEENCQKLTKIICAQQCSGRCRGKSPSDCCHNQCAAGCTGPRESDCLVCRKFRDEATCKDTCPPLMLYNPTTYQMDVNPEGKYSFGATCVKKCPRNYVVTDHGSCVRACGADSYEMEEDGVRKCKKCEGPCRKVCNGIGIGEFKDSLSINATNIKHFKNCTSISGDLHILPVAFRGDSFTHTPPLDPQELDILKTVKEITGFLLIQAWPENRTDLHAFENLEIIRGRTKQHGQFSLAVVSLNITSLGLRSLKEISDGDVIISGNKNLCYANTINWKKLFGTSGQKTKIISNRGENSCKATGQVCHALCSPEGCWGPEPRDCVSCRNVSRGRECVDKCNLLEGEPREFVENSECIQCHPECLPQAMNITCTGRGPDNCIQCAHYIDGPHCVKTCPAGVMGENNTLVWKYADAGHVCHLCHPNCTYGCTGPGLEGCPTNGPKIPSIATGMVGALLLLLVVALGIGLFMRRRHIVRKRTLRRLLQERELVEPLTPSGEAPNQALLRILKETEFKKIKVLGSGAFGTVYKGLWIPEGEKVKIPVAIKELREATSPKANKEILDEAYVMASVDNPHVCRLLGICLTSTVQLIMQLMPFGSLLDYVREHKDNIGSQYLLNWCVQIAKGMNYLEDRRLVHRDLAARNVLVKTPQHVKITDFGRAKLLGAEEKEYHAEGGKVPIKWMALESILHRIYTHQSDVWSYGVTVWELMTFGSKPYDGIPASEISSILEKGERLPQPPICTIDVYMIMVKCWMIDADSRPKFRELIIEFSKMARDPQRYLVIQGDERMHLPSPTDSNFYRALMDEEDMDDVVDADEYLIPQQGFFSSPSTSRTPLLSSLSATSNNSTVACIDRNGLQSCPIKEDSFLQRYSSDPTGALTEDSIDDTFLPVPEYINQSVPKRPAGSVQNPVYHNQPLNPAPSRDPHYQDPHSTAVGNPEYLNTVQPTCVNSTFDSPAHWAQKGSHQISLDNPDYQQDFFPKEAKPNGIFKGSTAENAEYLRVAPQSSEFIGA

SMILES	DC50 [nM]
CO[C@H]1CCN(c2nccc(Nc3cc4c(cn3)c(C(=O)NC3CCN(CCC5CCN(c6ccc7c(c6)C(=O)N(C6CCC(=O)NC6=O)C7=O)CC5)CC3)cn4C3CCCC3)n2)C[C@H]1F (mixture of isomers) [Example 15, 1-Cyclopentyl-N-[1-[2-[1-[2-[(3RS)-2,6-dioxo-3-piperidyl]-1,3-dioxo-isoindolin-5-yl]-4-piperidyl]ethyl]-4-piperidyl]-6-[[2-[(3R,4S)-3-fluoro-4-methoxy-1-piperidyl]pyrimidin-4-yl]amino]pyrrolo[3,2-c]pyridine-3-carboxamide]	49
CO[C@H]1CCN(c2nccc(Nc3cc4c(cn3)c(C(=O)NC3CCN(CCCCCCNc5cccc6c5C(=O)N(C5CCC(=O)NC5=O)C6=O)CC3)cn4C(C)C)n2)C[C@H]1F (mixture of isomers) [Example 7, N-[1-[6-[[2-[(3RS)-2,6-Dioxo-3-piperidyl]-1,3-dioxo-isoindolin-4-yl]amino]hexyl]-4-piperidyl]-6-[[2-[(3R,4S)-3-fluoro-4-methoxy-1-piperidyl]pyrimidin-4-yl]amino]-1-isopropyl-pyrrolo[3,2-c]pyridine-3-carboxamide]	70
COC1CCN(c2nccc(Nc3cc4c(cn3)c(C(=O)NC3CCN(CCCCCCNc5cccc6c5C(=O)N(C5CCC(=O)NC5=O)C6=O)CC3)cn4C(C)C)n2)CC1(F)F (racemic) [Example 3, 6-[[2-[(4RS)-3,3-Difluoro-4-methoxy-1-piperidyl]pyrimidin-4-yl]amino]-N-[1-[6-[[2-[(3RS)-2,6-dioxo-3-piperidyl]-1,3-dioxo-isoindolin-4-yl]amino]hexyl]-4-piperidyl]-1-isopropyl-pyrrolo[3,2-c]pyridine-3-carboxamide]	44
CO[C@H]1CCN(c2nccc(Nc3cc4c(cn3)c(C(=O)NC3CCN(CCCCCNc5cccc6c5C(=O)N(C5CCC(=O)NC5=O)C6=O)CC3)cn4C(C)C)n2)C[C@H]1F (mixture of isomers) [Example 9, N-[1-[5-[[2-[(3RS)-2,6-Dioxo-3-piperidyl]-1,3-dioxo-isoindolin-4-yl]amino]pentyl]-4-piperidyl]-6-[[2-[(3R,4S)-3-fluoro-4-methoxy-1-piperidyl]pyrimidin-4-yl]amino]-1-isopropyl-pyrrolo[3,2-c]pyridine-3-carboxamide]	26
CO[C@H]1CCN(c2nccc(Nc3cc4c(cn3)c(C(=O)NC3CCN(CCCCCNc5cccc6c5C(=O)N(C5CCC(=O)NC5=O)C6=O)CC3)cn4C3CCCC3)n2)C[C@H]1F (mixture of isomers) [Example 11, 1-Cyclopentyl-N-[1-[5-[[2-[(3RS)-2,6-dioxo-3-piperidyl]-1,3-dioxo-isoindolin-4-yl]amino]pentyl]-4-piperidyl]-6-[[2-[(3R,4S)-3-fluoro-4-methoxy-1-piperidyl]pyrimidin-4-yl]amino]pyrrolo[3,2-c]pyridine-3-carboxamide]	43
CO[C@H]1CCN(c2nccc(Nc3cc4c(cn3)c(C(=O)NC3CCN(C(=O)N5CCN(CCCCNc6cccc7c6C(=O)N(C6CCC(=O)NC6=O)C7=O)CC5)CC3)cn4C3CCCC3)n2)C[C@H]1F (mixture of isomers) [Example 13, 1-Cyclopentyl-N-[1-[4-[4-[[2-[(3RS)-2,6-dioxo-3-piperidyl]-1,3-dioxo-isoindolin-4-yl]amino]butyl]piperazine-1-carbonyl]-4-piperidyl]-6-[[2-[(3R,4S)-3-fluoro-4-methoxy-1-piperidyl]pyrimidin-4-yl]amino]pyrrolo[3,2-c]pyridine-3-carboxamide]	30
CO[C@H]1CCN(c2nccc(Nc3cc4c(cn3)c(C(=O)NC3CCN(CCCOC5CCN(c6cccc7c6C(=O)N(C6CCC(=O)NC6=O)C7=O)CC5)CC3)cn4C3CCCC3)n2)C[C@H]1F (single isomer, unassigned) [Example 18]	45
COC1CCN(c2nccc(Nc3cc4c(cn3)c(C(=O)NC3CCN(C(=O)CCCCCNc5cccc6c5C(=O)N(C5CCC(=O)NC5=O)C6=O)CC3)cn4C(C)C)n2)CC1 (racemic) [Example 1, N-[1-[6-[[2-[(3RS)-2,6-Dioxo-3-piperidyl]-1,3-dioxo-isoindolin-4-yl]amino]hexanoyl]-4-piperidyl]-1-isopropyl-6-[[2-(4-methoxy-1-piperidyl)pyrimidin-4-yl]amino]pyrrolo[3,2-c]pyridine-3-carboxamide]	59
CO[C@H]1CCN(c2nccc(Nc3cc4c(cn3)c(C(=O)NC3CCN(CCCCCCNc5cccc6c5C(=O)N(C5CCC(=O)NC5=O)C6=O)CC3)cn4C3CCCC3)n2)C[C@H]1F (mixture of isomers) [Example 10, 1-Cyclopentyl-N-[1-[6-[[2-[(3RS)-2,6-dioxo-3-piperidyl]-1,3-dioxo-isoindolin-4-yl]amino]hexyl]-4-piperidyl]-6-[[2-[(3R,4S)-3-fluoro-4-methoxy-1-piperidyl]pyrimidin-4-yl]amino]pyrrolo[3,2-c]pyridine-3-carboxamide]	85
COC1CCN(c2nccc(Nc3cc4c(cn3)c(C(=O)NC3CCN(CCCCCCNc5cccc6c5C(=O)N(C5CCC(=O)NC5=O)C6=O)CC3)cn4C(C)C)n2)CC1 (racemic) [Example 2, N-[1-[6-[[2-[(3RS)-2,6-Dioxo-3-piperidyl]-1,3-dioxo-isoindolin-4-yl]amino]hexyl]-4-piperidyl]-1-isopropyl-6-[[2-(4-methoxy-1-piperidyl)pyrimidin-4-yl]amino]pyrrolo[3,2-c]pyridine-3-carboxamide]	132
CO[C@H]1CCN(c2nccc(Nc3cc4c(cn3)c(C(=O)NC3CCN(CCC5CN(c6cccc7c6C(=O)N(C6CCC(=O)NC6=O)C7=O)C5)CC3)cn4C(C)C)n2)C[C@H]1F (mixture of isomers) [Example 23, N-[1-[2-[1-[2-[(3RS)-2,6-Dioxo-3-piperidyl]-1,3-dioxo-isoindolin-4-yl]azetidin-3-yl]ethyl]-4-piperidyl]-6-[[2-[(3R,4S)-3-fluoro-4-methoxy-1-piperidyl]pyrimidin-4-yl]amino]-1-isopropyl-pyrrolo[3,2-c]pyridine-3-carboxamide]	8
CO[C@H]1CCN(c2nccc(Nc3cc4c(cn3)c(C(=O)NC3CCN(CCCCC5CCN(c6ccc7c(c6)C(=O)N(C6CCC(=O)NC6=O)C7=O)CC5)CC3)cn4C(C)C)n2)C[C@H]1F (mixture of isomers) [Example 19, N-[1-[4-[1-[2-[(3RS)-2,6-Dioxo-3-piperidyl]-1,3-dioxo-isoindolin-5-yl]-4-piperidyl]butyl]-4-piperidyl]-6-[[2-[(3R,4S)(3S,4R)-3-fluoro-4-methoxy-1-piperidyl]pyrimidin-4-yl]amino]-1-isopropyl-pyrrolo[3,2-c]pyridine-3-carboxamide]	73
